Measurements as given in article PMC5054527, “Mechanism of high affinity inhibition of the human urate transporter URAT1” (Scientific Reports, 2016).
Changes are numbered by the printed parent chain. Read-outs that look alike come from different tables or passages of the source.

Assays:
[1] = molecular target: T1, r-Y365F/M481I rURAT1 double point mutant (Rattus norvegicus, UniProt Q3ZAV1, M481I/Y365F); test: URAT1 uric acid transport activity assay; type: cell-based
T1 construct: hURAT1 and rURAT1 are 553 amino acid proteins with 12 transmembrane segments; expressed in transfected cells; host or cells: HEK-293T
T1 sequence (Q3ZAV1 whole entry Y365F/M481I): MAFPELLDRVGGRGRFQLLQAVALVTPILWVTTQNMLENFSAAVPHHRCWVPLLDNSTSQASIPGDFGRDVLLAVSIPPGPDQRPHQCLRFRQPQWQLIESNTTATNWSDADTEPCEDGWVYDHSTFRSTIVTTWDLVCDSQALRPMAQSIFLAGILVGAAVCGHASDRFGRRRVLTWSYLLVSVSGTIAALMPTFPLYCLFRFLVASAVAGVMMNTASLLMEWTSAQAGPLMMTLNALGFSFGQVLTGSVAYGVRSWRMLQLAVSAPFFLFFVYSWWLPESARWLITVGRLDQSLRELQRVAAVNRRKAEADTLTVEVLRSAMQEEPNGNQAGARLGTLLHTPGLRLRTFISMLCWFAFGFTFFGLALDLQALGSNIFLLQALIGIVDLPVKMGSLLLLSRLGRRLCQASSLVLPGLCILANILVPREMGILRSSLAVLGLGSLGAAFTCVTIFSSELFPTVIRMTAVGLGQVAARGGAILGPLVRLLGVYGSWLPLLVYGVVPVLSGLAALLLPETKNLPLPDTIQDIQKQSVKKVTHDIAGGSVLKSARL
How it was run: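 Cells expressing site-directed rat URAT1 mutants were exposed to inhibitor dilutions for 5 minutes before radiolabelled uric acid (100 μM) was added for 10 minutes. Potency was derived by nonlinear regression of log inhibitor versus response.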

[2] = molecular target: T2, h-F365Y hURAT1 point mutant (Homo sapiens, UniProt Q96S37, F365Y); test: URAT1 uric acid transport activity assay; type: cell-based; conditions: for fold reduced affinity of h-F365Y compared to hURAT1: from IC50 values; for IC50: h-F365Y, 100 μM 14C-uric acid
T2 sequence (Q96S37 1-553 F365Y): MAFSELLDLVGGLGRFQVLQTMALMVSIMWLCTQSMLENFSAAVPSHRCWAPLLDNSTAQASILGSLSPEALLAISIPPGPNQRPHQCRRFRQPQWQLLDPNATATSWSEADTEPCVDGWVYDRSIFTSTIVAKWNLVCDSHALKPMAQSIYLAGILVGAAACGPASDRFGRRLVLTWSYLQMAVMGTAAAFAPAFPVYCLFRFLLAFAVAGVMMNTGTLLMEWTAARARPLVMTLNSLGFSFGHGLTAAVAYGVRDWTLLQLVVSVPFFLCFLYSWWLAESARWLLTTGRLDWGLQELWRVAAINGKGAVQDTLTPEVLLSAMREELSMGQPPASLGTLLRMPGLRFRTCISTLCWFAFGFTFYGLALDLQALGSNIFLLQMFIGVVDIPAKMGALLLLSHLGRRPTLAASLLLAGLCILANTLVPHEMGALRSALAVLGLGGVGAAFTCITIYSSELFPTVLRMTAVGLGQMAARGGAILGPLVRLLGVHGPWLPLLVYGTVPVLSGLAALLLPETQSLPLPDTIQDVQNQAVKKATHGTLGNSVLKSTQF

[3] = molecular target: T3, h-S35N hURAT1 point mutant (Homo sapiens, UniProt Q96S37, S35N); test: URAT1 uric acid transport activity assay; type: cell-based; conditions: for fold reduced sensitivity/affinity of h-S35N compared to hURAT1: from IC50 values; for IC50: h-S35N, 100 μM 14C-uric acid
T3 sequence (Q96S37 1-553 S35N): T2 sequence (Q96S37 1-553 F365Y) with S35N, Y365F

human URAT1 (hURAT1 WT) = molecular target: T4, human URAT1 (hURAT1 WT) (Homo sapiens, UniProt Q96S37); test: URAT1 uric acid transport activity assay; type: cell-based; conditions: for IC50: hURAT1 WT, 100 μM 14C-uric acid; for fold higher affinity (potency) of hURAT1 compared to rURAT1: ratio of IC50 values, rURAT1 vs hURAT1
T4 sequence (Q96S37 1-553): T2 sequence (Q96S37 1-553 F365Y) with Y365F

h-r TM5-C URAT1 chimera = molecular target: T5, h-r TM5-C URAT1 chimera (Homo sapiens, UniProt Q96S37, A249G/A250S/G246V/H245Q); test: URAT1 uric acid transport activity assay; type: cell-based, human/rat; conditions: HEPES pH 7.3, 100 μM 14C-uric acid
T5 construct: expressed in transfected cells; host or cells: HEK-293T
T5 sequence (Q96S37 whole entry H245Q/G246V/A249G/A250S): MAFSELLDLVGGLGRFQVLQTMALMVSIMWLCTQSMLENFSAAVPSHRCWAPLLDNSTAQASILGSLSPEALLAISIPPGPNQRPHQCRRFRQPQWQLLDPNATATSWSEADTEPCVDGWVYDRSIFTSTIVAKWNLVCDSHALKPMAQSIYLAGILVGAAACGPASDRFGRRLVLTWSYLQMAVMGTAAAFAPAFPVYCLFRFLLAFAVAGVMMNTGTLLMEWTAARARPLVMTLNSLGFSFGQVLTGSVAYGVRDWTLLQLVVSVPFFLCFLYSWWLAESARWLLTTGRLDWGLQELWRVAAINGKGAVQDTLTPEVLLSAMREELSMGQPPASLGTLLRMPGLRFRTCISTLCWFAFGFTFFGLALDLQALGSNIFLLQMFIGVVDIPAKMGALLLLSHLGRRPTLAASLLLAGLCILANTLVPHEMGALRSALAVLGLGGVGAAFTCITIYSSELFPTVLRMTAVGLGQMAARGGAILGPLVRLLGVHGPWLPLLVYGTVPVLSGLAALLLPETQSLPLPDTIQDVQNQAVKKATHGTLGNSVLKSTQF
From the text: (§1) hURAT1 (GenBank BC053348.1) and rURAT1 (NCBI NM_001034943.1) genes were purchased from Origene Technologies, Inc. and subcloned into pCMV6/neo using NotI, creating pCMV6/neo-hURAT1 and pCMV6/neo-rURAT1. Mutants were produced by polymerase chain reaction (PCR) or site-directed mutagenesis using the QuikChange Lightning Multi Site-Directed Mutagenesis Kit (Agilent Technologies). […] Detailed methods are provided in Supplementary Methods, and primers are listed in Supplementary Table 1. […] Residues in rURAT1 and hOAT1 that correspond to the residues in hURAT1 were identified from aligned protein sequences (Supplementary Fig. 1)[50].
(§2) DNA (10 μg) was mixed with 30 μl of DreamFect Gold (Boca Scientific) in 2 ml OptiMem (Life Technologies). After 20 minutes, 18 ml of media containing 2 × 10^7 cells in suspension was added and mixed, and 200 μl per well were plated onto white clear-bottomed poly-D-lysine coated 96-well plates (BD Biosciences). The cells were assayed the following day.
(§3) Compounds were serially diluted into assay buffer and added to the cells for 5 minutes prior to addition of radiolabelled uric acid substrate. URAT1-expressing cells were incubated with 100 μM ^14C-uric acid for 10 minutes. […] Each treatment was measured in triplicate.
(§4) Unlabelled uric acid was prepared at a 20 mM stock just prior to use in a solution containing 20 mM dibasic potassium phosphate and 20 mM potassium hydroxide.
(§5) Nonlinear regression analyses using GraphPad Prism software were used to calculate the potency of URAT1 inhibitors (IC50 values) from log (inhibitor) versus response - variable slope (four parameters) equations. Statistical significance was assessed using Student’s unpaired t-tests.

h-r TM9-N URAT1 chimera = molecular target: T6, h-r TM9-N URAT1 chimera (Homo sapiens, UniProt Q96S37, A411S/A416P/L414V); test: URAT1 uric acid transport activity assay; type: cell-based, human/rat; conditions: HEPES pH 7.3, 100 μM 14C-uric acid
T6 construct: expressed in transfected cells; host or cells: HEK-293T
T6 sequence (Q96S37 whole entry A411S/L414V/A416P): as the sequence (Q96S37 whole entry H245Q/G246V/A249G/A250S) above, with Q245H, V246G, G249A, S250A, A411S, L414V, A416P counted along it
From the text: as §1, §2, §3, §4, §5

rURAT1 = tested on: rURAT1; set-up: method as in PMID 21074513; conditions: cited from earlier work

SMILES	IC50 ([1]; r-Y365F/M481I, HEPES pH 7.3, 100 μM 14C-uric acid, read-out: IC50 (uric acid transport)) [µM]	fold reduced affinity of h-F365Y compared to hURAT1 [2] [fold]	IC50 ([2]; HEPES pH 7.3) [µM]	fold reduced sensitivity/affinity of h-S35N compared to hURAT1 [3] [fold]	IC50 ([3]; HEPES pH 7.3) [µM]	IC50 (human URAT1 (hURAT1 WT); HEPES pH 7.3) [µM]	fold higher affinity (potency) of hURAT1 compared to rURAT1 (human URAT1 (hURAT1 WT))	IC50 (h-r TM5-C URAT1 chimera) [µM]	IC50 (h-r TM9-N URAT1 chimera) [µM]	IC50 ([2]; MES pH 5.5) [µM]	IC50 ([3]; MES pH 5.5) [µM]	IC50 (human URAT1 (hURAT1 WT); MES pH 5.5) [µM]	Km (rURAT1; read-out: Km for the substrate urate) [µM]	IC50 [1] [µM]	IC50 (rURAT1) [µM]
O=C1C(CC[S+]([O-])c2ccccc2)C(=O)N(c2ccccc2)N1c1ccccc1 (stereo not drawn) [sulfinpyrazone]	138 ± 25	5	163 ± 13	7	233 ± 54	32	21 fold	34 ± 4	36 ± 17						
O=c1[nH]c(=O)c2[nH]c(=O)[nH]c2[nH]1 [uric acid]		2.5		2.1			greater than 10 fold			609	507	246	1770		
CCc1oc2ccccc2c1C(=O)c1cc(Br)c(O)c(Br)c1 [benzbromarone]														3.5 ± 0.39	11.9
